Test results as given in paper PMC8766756, “Insights on Cancer Cell Inhibition, Subcellular Activities, and Kinase Profile of Phenylacetamides Pending 1H-Imidazol-5-One Variants” (Frontiers in Pharmacology, 2022).
Where “and” joins values, the source holds several entries; their conditions need not be identical. Identical values can stand only once.

What was measured:
Test in all cases: PamChip tyrosine kinase microarray
Assay type in all cases: biochemical
Settings in all cases: 0.1 µM, HL60 lysate
[1] = target: T1, Brk (Q13882) (Homo sapiens, UniProt Q13882)
T1 construct: purchased PamGene (PamChip PTK array, Upstream Kinase Analysis)
Description: (§1) The reproducible high potency of KIM-161 on leukemia cell lines was initially speculated to encompass Src tyrosine kinase inhibition. Even so, we also suspected that KIM-161 might be affecting other tyrosine kinases because the HL60 cells are not among the most Src-dependent highly proliferative cells ([Collins, 1987]). Therefore, a profiling of the kinase activities was performed after treatment with KIM-161 using PamChip® tyrosine kinase microarray. This analysis is based on incubation of cell lysate with 3D microarray that projects peptides specific for 143 tyrosine kinases. If a kinase is modified in the cells, it will be detected by phosphorylating its specific peptide in the microarray.
(§2) This test measured the activities of an array of tyrosine kinases of treated HL60 cells compared to the control (untreated cells) after incubation with KIM-161 for 48 h at concentrations of 0.001, 0.01, 0.1, 1.0, 10, and 50 µM. The log fold change (LFC) heat map was initially used to identify significant peptides affected at each concentration (Figure 5).
(§3) An Upstream Kinase Tool was used to generate a putative list of kinases responsible for phosphorylating the phosphosites on the PamChip®. It is an interpretation and is highly dependent on the contents of the underlying phosphorylation databases. Kinase score (Table 2) was used for ranking kinases based on their significance and specificity in terms of the set of peptides used for the corresponding kinase. Kinase statistics indicates the overall change of the peptide set that represents a certain kinase. Kinase statistics value of <0 indicates lower kinase activity in the lysate spiked with the compound and vice versa. Table 2 lists the 20 most changed kinases within treated HL60 cell lysates by 0.1 μM KIM-161.
(§4) Every compound had spiked into a leukemic (AML) cell line HL60 lysate at different concentrations (0.001, 0.01, 0.1, 1, 10, and 50 μM). In addition, DMSO had also spiked at a low concentration (2% v/v) to the HL60 lysate as the control. The samples were profiled on PamGene's tyrosine kinase (PTK) arrays in technical replicates, covering a total of 196 phosphorylation sites. The frozen leukemic HL60 cultured cell pellet was sent to PamGene. At PamGene, the cells were lysed in the presence of the lysis buffer and proteases inhibitor cocktail. The protein concentration was measured using the standard Bradford assay as per the PamGene SOPs. These lysates were further used for generating the PTK activity profiles. For spiking, KIM-161 was received in powder form and dissolved in DMSO at the PamGene facility, followed by storing it at −20°C in small aliquots. PamGene used its in-house bioinformatics toolbox in combination with other methods to generate the hypotheses of signaling pathways.

[2] = target: T2, FGFR1 (P11362) (Homo sapiens, UniProt P11362)
T2 construct: purchased PamGene (PamChip PTK array, Upstream Kinase Analysis)
Description: as §1, §2, §3, §4

[3] = target: T3, Fgr (P09769) (Homo sapiens, UniProt P09769)
T3 construct: purchased PamGene (PamChip PTK array, Upstream Kinase Analysis)
Description: as §1, §2, §3, §4

[4] = target: T4, HER4 (Q15303) (Homo sapiens, UniProt Q15303)
T4 construct: purchased PamGene (PamChip PTK array, Upstream Kinase Analysis)
Description: as §1, §2, §3, §4

[5] = target: T5, JAK1~b (P23458) (Homo sapiens, UniProt P23458)
T5 construct: JAK1~b (P23458); purchased PamGene (PamChip PTK array, Upstream Kinase Analysis)
Description: as §1, §2, §3, §4

[6] = target: T6, LTK (P29376) (Homo sapiens, UniProt P29376)
T6 construct: purchased PamGene (PamChip PTK array, Upstream Kinase Analysis)
Description: as §1, §2, §3, §4

[7] = target: T7, Ret (P07949) (Homo sapiens, UniProt P07949)
T7 construct: purchased PamGene (PamChip PTK array, Upstream Kinase Analysis)
Description: as §1, §2, §3, §4

[8] = target: T8, TEC (P42680) (Homo sapiens, UniProt P42680)
T8 construct: purchased PamGene (PamChip PTK array, Upstream Kinase Analysis)
T8 sequence (P42680 1-631): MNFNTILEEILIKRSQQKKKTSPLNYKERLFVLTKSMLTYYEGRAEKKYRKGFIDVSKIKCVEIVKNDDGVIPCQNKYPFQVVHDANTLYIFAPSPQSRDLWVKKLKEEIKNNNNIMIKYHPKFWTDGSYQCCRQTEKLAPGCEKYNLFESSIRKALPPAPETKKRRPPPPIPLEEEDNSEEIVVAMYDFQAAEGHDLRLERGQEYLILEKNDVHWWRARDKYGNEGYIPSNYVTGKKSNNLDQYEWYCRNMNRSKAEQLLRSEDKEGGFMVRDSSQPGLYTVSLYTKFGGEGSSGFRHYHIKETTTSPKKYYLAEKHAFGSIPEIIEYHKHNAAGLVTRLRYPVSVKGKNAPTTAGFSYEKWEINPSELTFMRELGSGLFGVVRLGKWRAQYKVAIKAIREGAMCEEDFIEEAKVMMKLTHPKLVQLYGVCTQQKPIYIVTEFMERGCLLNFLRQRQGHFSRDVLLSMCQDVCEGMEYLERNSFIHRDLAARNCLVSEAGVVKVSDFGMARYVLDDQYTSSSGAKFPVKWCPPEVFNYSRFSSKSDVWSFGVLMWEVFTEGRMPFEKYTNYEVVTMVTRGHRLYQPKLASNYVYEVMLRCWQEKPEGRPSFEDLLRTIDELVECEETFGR
Description: as §1, §2, §3, §4

[9] = target: T9, TRKA (P04629) (Homo sapiens, UniProt P04629)
T9 construct: purchased PamGene (PamChip PTK array, Upstream Kinase Analysis)
Description: as §1, §2, §3, §4

[10] = target: T10, TRKC (Q16288) (Homo sapiens, UniProt Q16288)
T10 construct: purchased PamGene (PamChip PTK array, Upstream Kinase Analysis)
Description: as §1, §2, §3, §4

T5 sequence (P23458 whole entry): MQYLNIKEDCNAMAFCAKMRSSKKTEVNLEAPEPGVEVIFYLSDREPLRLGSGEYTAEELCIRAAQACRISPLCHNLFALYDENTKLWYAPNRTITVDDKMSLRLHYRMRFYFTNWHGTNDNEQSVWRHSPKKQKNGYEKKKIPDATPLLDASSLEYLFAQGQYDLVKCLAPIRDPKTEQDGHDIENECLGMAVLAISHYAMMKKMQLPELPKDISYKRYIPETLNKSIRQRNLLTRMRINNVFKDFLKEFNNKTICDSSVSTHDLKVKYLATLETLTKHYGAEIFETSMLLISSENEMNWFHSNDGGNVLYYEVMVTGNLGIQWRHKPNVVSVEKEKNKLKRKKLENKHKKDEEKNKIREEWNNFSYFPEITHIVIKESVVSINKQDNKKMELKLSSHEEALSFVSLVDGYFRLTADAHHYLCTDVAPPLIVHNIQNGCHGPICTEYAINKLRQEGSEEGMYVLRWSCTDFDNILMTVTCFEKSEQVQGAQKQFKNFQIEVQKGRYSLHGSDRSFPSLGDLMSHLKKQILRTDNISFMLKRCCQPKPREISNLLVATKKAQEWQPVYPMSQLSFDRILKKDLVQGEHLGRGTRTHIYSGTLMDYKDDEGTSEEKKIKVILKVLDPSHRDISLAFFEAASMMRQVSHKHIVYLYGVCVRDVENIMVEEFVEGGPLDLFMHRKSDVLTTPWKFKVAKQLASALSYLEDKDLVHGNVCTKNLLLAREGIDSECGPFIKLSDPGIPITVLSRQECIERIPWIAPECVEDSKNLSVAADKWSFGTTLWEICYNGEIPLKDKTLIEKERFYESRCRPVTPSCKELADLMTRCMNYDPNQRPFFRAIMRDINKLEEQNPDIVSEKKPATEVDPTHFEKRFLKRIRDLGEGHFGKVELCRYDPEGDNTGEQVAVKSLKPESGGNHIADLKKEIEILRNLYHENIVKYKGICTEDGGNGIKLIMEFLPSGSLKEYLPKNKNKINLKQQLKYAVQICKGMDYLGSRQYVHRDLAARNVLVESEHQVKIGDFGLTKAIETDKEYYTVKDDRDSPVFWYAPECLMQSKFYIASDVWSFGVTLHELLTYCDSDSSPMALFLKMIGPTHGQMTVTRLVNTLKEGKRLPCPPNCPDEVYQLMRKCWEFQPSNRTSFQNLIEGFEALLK
T7 sequence (P07949 29-1114): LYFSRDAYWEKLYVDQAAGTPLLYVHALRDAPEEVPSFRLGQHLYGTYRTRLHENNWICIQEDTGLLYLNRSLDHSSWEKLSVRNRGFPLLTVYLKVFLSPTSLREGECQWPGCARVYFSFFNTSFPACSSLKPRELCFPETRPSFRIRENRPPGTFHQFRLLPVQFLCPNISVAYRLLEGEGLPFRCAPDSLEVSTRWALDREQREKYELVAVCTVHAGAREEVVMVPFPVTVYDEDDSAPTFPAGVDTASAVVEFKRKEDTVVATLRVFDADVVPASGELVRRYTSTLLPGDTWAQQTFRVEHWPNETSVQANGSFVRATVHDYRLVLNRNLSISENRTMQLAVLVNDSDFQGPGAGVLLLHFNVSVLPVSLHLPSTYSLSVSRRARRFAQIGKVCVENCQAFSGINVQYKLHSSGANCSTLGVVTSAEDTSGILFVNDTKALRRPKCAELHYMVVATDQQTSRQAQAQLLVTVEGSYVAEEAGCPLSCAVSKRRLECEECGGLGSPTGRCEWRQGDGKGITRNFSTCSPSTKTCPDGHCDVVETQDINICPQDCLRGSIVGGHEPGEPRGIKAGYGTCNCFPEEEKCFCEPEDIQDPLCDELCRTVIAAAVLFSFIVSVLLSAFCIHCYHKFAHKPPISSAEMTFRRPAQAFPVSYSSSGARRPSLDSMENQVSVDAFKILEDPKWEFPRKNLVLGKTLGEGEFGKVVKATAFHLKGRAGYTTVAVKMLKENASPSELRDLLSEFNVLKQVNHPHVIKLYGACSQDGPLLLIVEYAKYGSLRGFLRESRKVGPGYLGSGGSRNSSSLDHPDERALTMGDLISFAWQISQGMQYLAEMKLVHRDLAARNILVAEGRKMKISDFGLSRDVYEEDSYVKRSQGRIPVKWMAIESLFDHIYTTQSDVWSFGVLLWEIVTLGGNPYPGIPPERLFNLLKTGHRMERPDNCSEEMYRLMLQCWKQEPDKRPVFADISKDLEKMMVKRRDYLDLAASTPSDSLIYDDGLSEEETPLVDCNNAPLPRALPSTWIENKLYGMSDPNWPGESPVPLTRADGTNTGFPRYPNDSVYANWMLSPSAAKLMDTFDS
T10 sequence (Q16288 32-839): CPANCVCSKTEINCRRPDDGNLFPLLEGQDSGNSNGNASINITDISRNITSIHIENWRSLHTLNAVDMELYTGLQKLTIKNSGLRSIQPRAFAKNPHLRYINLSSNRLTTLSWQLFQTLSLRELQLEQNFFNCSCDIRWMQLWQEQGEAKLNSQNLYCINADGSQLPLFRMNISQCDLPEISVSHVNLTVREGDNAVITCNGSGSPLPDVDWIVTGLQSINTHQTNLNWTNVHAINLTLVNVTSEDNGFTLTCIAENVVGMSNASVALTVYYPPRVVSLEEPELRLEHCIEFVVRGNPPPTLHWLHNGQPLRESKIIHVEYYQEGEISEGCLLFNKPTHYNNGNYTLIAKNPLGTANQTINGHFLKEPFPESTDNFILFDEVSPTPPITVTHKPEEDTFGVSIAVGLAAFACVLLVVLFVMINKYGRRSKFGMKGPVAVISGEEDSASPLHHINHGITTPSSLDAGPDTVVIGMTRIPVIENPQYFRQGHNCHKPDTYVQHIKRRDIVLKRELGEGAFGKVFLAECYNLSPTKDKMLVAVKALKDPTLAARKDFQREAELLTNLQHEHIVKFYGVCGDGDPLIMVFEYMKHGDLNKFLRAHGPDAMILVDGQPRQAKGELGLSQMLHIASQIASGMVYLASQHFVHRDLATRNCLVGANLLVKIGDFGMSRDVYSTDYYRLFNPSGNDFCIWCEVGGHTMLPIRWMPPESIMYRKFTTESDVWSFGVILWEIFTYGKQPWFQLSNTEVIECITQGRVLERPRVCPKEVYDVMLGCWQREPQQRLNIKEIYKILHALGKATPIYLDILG
T6 sequence (P29376 17-864): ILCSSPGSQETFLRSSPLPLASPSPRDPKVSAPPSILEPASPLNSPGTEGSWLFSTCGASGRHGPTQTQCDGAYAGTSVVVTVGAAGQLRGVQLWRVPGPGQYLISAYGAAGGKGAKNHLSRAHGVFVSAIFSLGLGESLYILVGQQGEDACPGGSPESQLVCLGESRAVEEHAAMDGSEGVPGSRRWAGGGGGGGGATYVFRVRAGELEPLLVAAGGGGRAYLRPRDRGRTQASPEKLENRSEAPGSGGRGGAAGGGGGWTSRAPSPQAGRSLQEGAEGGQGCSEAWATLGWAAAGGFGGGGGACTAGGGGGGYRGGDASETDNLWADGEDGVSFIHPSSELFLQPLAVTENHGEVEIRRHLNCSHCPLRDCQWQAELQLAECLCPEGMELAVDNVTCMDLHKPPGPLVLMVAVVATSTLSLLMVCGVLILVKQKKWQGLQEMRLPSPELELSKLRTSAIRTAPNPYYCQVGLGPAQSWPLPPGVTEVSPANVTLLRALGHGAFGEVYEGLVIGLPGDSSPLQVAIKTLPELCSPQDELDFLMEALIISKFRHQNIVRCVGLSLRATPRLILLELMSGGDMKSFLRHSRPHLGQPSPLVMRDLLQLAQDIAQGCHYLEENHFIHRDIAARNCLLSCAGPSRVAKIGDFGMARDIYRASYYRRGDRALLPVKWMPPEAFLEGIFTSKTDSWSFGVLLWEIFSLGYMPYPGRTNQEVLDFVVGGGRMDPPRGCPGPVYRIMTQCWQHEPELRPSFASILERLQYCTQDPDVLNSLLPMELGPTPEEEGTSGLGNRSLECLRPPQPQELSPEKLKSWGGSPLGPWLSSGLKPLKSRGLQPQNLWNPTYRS
T9 sequence (P04629 33-796): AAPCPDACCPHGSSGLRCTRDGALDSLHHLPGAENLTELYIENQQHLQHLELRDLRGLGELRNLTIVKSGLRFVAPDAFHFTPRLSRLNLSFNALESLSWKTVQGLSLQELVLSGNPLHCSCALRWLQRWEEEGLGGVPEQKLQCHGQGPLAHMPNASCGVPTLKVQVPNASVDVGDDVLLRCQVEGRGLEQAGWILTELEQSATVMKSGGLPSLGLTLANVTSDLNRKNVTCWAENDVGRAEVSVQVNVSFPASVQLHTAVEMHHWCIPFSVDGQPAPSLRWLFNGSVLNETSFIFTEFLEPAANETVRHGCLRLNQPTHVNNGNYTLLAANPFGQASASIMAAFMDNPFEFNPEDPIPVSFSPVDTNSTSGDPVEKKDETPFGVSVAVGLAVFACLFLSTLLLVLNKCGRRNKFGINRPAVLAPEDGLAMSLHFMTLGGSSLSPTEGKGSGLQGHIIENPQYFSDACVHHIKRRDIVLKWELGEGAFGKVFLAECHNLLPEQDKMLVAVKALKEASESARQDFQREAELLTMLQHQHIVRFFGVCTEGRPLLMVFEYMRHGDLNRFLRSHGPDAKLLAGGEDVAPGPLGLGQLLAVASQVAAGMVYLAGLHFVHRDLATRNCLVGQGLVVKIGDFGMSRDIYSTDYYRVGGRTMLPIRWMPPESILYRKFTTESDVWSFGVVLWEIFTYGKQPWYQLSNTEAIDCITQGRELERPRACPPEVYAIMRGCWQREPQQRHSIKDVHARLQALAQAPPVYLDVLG

Structure (SMILES): COc1ccc(/C=C2\N=C(C)N(c3ccc(CC(=O)NCc4ccccc4)cc3)C2=O)cc1 [Compound 4c, (Z)-N-Benzyl-2-(4-(4-(4-methoxybenzylidene)-2-methyl-5-oxo-4,5-dihydro-1H-imidazol-1-yl)phenyl)acetamide]
- Mean Final score (Kinase score) [1]: 2.481
- Mean Kinase Statistic [1]: -1.21
- Mean Significance Score [1]: 2.048
- Mean Specificity Score [1]: 0.446
- Mean Final score (Kinase score) [2]: 1.92
- Mean Kinase Statistic [2]: -0.994
- Mean Significance Score [2]: 1.619
- Mean Specificity Score [2]: 0.1511
- Mean Final score (Kinase score) [3]: 2.293
- Mean Kinase Statistic [3]: -1.161
- Mean Significance Score [3]: 1.8658
- Mean Specificity Score [3]: 0.2752
- Mean Final score (Kinase score) [4]: 2.227
- Mean Kinase Statistic [4]: -1.109
- Mean Significance Score [4]: 2.048
- Mean Specificity Score [4]: 0.2042
- Mean Significance Score [5]: 1.955
- Mean Specificity Score [5]: 1.609
- Mean Final score (Kinase score) ([5]; listed as KIM-161): 3.51 and 3.514
- Mean Final score (Kinase score) [6]: 1.968
- Mean Kinase Statistic [6]: -1.055
- Mean Significance Score [6]: 1.724
- Mean Specificity Score [6]: 0.1654
- Mean Significance Score [7]: 2.048
- Mean Specificity Score [7]: 1.108
- Mean Final score (Kinase score) ([7]; listed as KIM-161): 3.14 and 3.143
- Mean Final score (Kinase score) [8]: 2.197
- Mean Kinase Statistic [8]: -1.125
- Mean Significance Score [8]: 2.048
- Mean Specificity Score [8]: 0.171
- Mean Final score (Kinase score) [9]: 2.339
- Mean Kinase Statistic [9]: -1.138
- Mean Significance Score [9]: 2.048
- Mean Specificity Score [9]: 0.2694
- Mean Final score (Kinase score) [10]: 2.207
- Mean Kinase Statistic [10]: -1.079
- Mean Significance Score [10]: 2.048
- Mean Specificity Score [10]: 0.1464
